According to ChEMBL document CHEMBL1201862, “PubChem BioAssay data set” (2004):
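Exposure lasted 48 hours, with cells grown in 96-well plates and compounds tested at five concentrations. Abbreviation: GI50, concentration required for 50% inhibition of growth.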 Activity calls are given as the source filed them. No stated cut-off is given here; in the data, active = GI50 up to about 1.1 µM and inactive = higher.

Columns and labels:
Assay in all cases: NCI-60 cell line screen, 48 h
NCI-H23 = system: NCI-H23
MDA-MB-435 = system: MDA-MB-435
ACHN = system: ACHN
SF-295 = system: SF-295
SNB-19 = system: SNB-19
Hs-578T = system: Hs-578T
NCI/ADR-RES = system: NCI/ADR-RES
UACC-62 = system: UACC-62
A549 = system: A549
HL-60 = system: HL-60
SNB-75 = system: SNB-75
MCF7 = system: MCF7
OVCAR-5 = system: OVCAR-5
HCT-116 = system: HCT-116
NCI-H522 = system: NCI-H522
K562 = system: K562
SF-268 = system: SF-268
MOLT-4 = system: MOLT-4
HOP-62 = system: HOP-62
BT-549 = system: BT-549

Measured: GI50

CCOC(=O)C1C(C)C2(C#N)C(=N)OC1(C)C2(C#N)C#N (configuration not stated)
inactive: NCI-H23 60 µM | MDA-MB-435 65.9 µM | ACHN 38.6 µM | SF-295 > 100 µM | SNB-19 79.3 µM | Hs-578T 40.9 µM | NCI/ADR-RES > 100 µM | UACC-62 46 µM | A549 > 100 µM | HL-60 21.8 µM | SNB-75 27.6 µM | MCF7 55.2 µM | OVCAR-5 > 100 µM | HCT-116 76.7 µM | NCI-H522 71.9 µM | K562 39.4 µM | SF-268 57.9 µM

CN(C)N1C(=C(C#N)C#N)C(c2ccccc2)CC1C#N (configuration not stated)
inactive: MOLT-4 > 100 µM | NCI-H23 > 100 µM | MDA-MB-435 > 100 µM | ACHN > 100 µM | SF-295 > 100 µM | SNB-19 > 100 µM | Hs-578T > 100 µM | NCI/ADR-RES > 100 µM | UACC-62 > 100 µM | A549 > 100 µM | HL-60 > 100 µM | SNB-75 57.8 µM | HOP-62 > 100 µM | MCF7 > 100 µM | OVCAR-5 > 100 µM | HCT-116 > 100 µM | NCI-H522 > 100 µM | K562 > 100 µM | SF-268 > 100 µM

CCN(CC)CCC(=O)c1ccc(Oc2ccccc2)cc1
inactive: MOLT-4 20 µM | NCI-H23 25.1 µM | MDA-MB-435 20.7 µM | ACHN 15.8 µM | SF-295 55.3 µM | SNB-19 18.9 µM | Hs-578T 18.2 µM | NCI/ADR-RES 21.9 µM | UACC-62 15.9 µM | A549 > 100 µM | SNB-75 19.5 µM | HOP-62 27.5 µM | MCF7 17.9 µM | OVCAR-5 20.7 µM | HCT-116 17.9 µM | K562 35.3 µM | SF-268 20.8 µM | BT-549 18.7 µM

CC1OC1P(=O)(O)O (configuration not stated)
inactive: MOLT-4 > 100 µM | NCI-H23 > 100 µM | MDA-MB-435 > 100 µM | ACHN > 100 µM | SF-295 > 100 µM | SNB-19 > 100 µM | Hs-578T > 100 µM | UACC-62 > 100 µM | A549 > 100 µM | SNB-75 > 100 µM | HOP-62 > 100 µM | MCF7 > 100 µM | OVCAR-5 26.3 µM | HCT-116 > 100 µM | K562 > 100 µM | SF-268 > 100 µM | BT-549 > 100 µM

CC(=O)OCCCCn1nncc1Cn1ccc(=O)n(Cc2cnnn2CCCCOC(C)=O)c1=O
inactive: MOLT-4 > 100 µM | NCI-H23 > 100 µM | MDA-MB-435 > 100 µM | ACHN > 100 µM | SF-295 > 100 µM | SNB-19 > 100 µM | Hs-578T > 100 µM | NCI/ADR-RES > 100 µM | UACC-62 > 10 µM | A549 > 100 µM | SNB-75 > 100 µM | HOP-62 > 100 µM | MCF7 > 100 µM | OVCAR-5 > 100 µM | HCT-116 > 100 µM | SF-268 > 100 µM | BT-549 > 100 µM

CN(C)CCNC(=O)c1cnn(C)c1[N+](=O)[O-]
inactive: MOLT-4 > 100 µM | NCI-H23 73.5 µM | MDA-MB-435 > 100 µM | ACHN > 100 µM | SF-295 > 100 µM | SNB-19 > 100 µM | Hs-578T > 100 µM | UACC-62 52.4 µM | A549 > 100 µM | HL-60 35.2 µM | SNB-75 > 100 µM | HOP-62 > 100 µM | MCF7 63.4 µM | OVCAR-5 > 100 µM | HCT-116 50.9 µM | NCI-H522 > 100 µM | K562 > 100 µM | SF-268 > 100 µM | BT-549 > 100 µM

CN(C)CCCOCCn1c2c(c3ccccc31)CCCC2
inactive: MOLT-4 13.7 µM | NCI-H23 15.1 µM | MDA-MB-435 17.7 µM | ACHN 15.2 µM | SF-295 20 µM | Hs-578T 19.7 µM | NCI/ADR-RES 16.3 µM | UACC-62 16.7 µM | A549 17 µM | HL-60 5.19 µM | SNB-75 13.1 µM | HOP-62 14.7 µM | MCF7 16.4 µM | OVCAR-5 16.9 µM | HCT-116 15.3 µM | K562 12.9 µM | SF-268 26.9 µM

C=CCCCC1CCCNC1=O (configuration not stated)
inactive: MOLT-4 > 100 µM | NCI-H23 > 100 µM | MDA-MB-435 > 100 µM | ACHN > 100 µM | SF-295 > 100 µM | SNB-19 > 100 µM | Hs-578T > 100 µM | UACC-62 > 100 µM | A549 > 100 µM | SNB-75 > 100 µM | HOP-62 > 100 µM | MCF7 > 100 µM | OVCAR-5 > 100 µM | HCT-116 > 100 µM | NCI-H522 > 100 µM | K562 > 100 µM | SF-268 > 100 µM | BT-549 > 100 µM
